Assay results taken from patent US20250144205A1, “COMPOSITIONS AND METHODS FOR TREATING INFECTIOUS DISEASES” (priority 2022, published 2025).

Test system: TSE-induced lung injury (TSE-LI)
Assay: chronic tobacco smoke exposure induced lung injury (TSE-LI) in wild-type mice
Assay type: in vivo
Experimental: Recombinant full-length U5a protein (U5a^FL), extracellular domain of U5a^FL (U5a^ECD) and U5a^ECD-specific monoclonal antibody (U5a^mAb, the 17C9 1 anti-U5a antibody comprising the sequences of SEQ ID NOs. 204 and 211) mitigated chronic TS exposure (TSE) induced lung injury (TSE-LI) in wild-type (WT) mice. WT mice were kept in ambient AIR or exposed to tobacco smoke (TSE) for 4 h/day 5 days a week. After 16 weeks, WT mice with TSE-LI were left untreated (None) or treated with 2.5 mg/kg of U5a^FL, U5a^ECD and U5amAb 5 days a week for 4 weeks by IP injection. Total lung RNA were analyzed for MUC5AC (M5Ac) (FIG. 12A), FOXA2 (FIG. 12B) and surfactant protein-C(SP-C) (FIG. 12C) mRNA by qPCR. Lung sections of mice treated as in FIG. 12A were subjected to IHC analysis for M5Ac (FIG. 12D). We found increased expression of U5a in AECs and ATII cells in lungs of patients with COPD and mice with TSE-LI. […] In addition, increased surfactant protein-C(SP-C) indicates improved survival of ATII cells, which is otherwise reduced due to increased TSE-induced senescence and apoptosis of ATII cells seen in mice with TSE-LI left untreated.

U5a^ECD: extracellular domain of U5a^FL; ECD of UNC5A given as SEQ ID NO: 103
MUC5AC (M5Ac) expression (lung mRNA by qPCR, IHC) (WT mice with TSE-LI, 2.5 mg/kg IP 5 days a week for 4 weeks, FIG. 12A, 12D): significantly inhibits
FOXA2 mRNA (qPCR) (WT mice with TSE-LI, 2.5 mg/kg IP 5 days a week for 4 weeks, FIG. 12B): inducing
surfactant protein-C (SP-C) mRNA (qPCR) (WT mice with TSE-LI, 2.5 mg/kg IP 5 days a week for 4 weeks, FIG. 12C): increased
chronic TS exposure (TSE) induced lung injury (TSE-LI) (WT mice, 2.5 mg/kg IP 5 days a week for 4 weeks after 16 weeks TSE): mitigated
